{"source": "patent US20050074426A1", "about": "“Fusions of cytokines and tumor targeting proteins” (priority 2002, published 2005)", "key": {"[1]": {"test_system": "RMA-T lymphoma", "test": "anti-tumor activity and survival in RMA-T lymphoma bearing mice", "type": "in vivo, C57BL/6 mice", "procedure": "The Rauscher virus-induced RMA lymphoma of C57BL/6 origin (69) were maintained in vitro in RPMI 1640, 5% fetal bovine serum (FBS), 100 U/ml penicillin, 100 μg/ml streptomycin, 0.25 μg/ml amphotericin B, 2 mM glutamine and 50 μM 2-mercaptoethanol. RMA-T was derived from the RMA cell line by transfection with a construct encoding the Thy 1.1 allele and cultured as described Moro, 1997 #28].\n(§1) In vivo studies on animal models were approved by the Ethical Committee of the San Raffaele H Scientific Institute and performed according to the prescribed guidelines. C57BL/6 (Charles River Laboratories, Calco, Italy) (16-18 g) were challenged with 5×10^4 RMA-T or TSA living cells, respectively, s.c. in the left flank. […] Each experiment was carried out with 5 mice per group. The tumor growth was monitored daily by measuring the tumor size with calipers. The tumor area was estimated by calculating r1×r2 π, whereas tumor volume was estimated by calculating r1×r2×r3×4/3 π, where r1 and r2 are the longitudinal and lateral radii, and r3 is the thickness of tumors protruding from the surface of normal skin. Animals were killed before the tumor reached 1.0-1.3 cm diameter. Tumor sizes are shown as mean±SE (5-10 animals per group) and compared by t-test.\nTo avoid excessive suffering, the animals were killed when the tumor diameter was greater than 1-1.3 cm."}, "[2]": {"target": "T1, p55TNFR (Homo sapiens, UniProt P19438)", "T1 sequence (P19438 30-455)": "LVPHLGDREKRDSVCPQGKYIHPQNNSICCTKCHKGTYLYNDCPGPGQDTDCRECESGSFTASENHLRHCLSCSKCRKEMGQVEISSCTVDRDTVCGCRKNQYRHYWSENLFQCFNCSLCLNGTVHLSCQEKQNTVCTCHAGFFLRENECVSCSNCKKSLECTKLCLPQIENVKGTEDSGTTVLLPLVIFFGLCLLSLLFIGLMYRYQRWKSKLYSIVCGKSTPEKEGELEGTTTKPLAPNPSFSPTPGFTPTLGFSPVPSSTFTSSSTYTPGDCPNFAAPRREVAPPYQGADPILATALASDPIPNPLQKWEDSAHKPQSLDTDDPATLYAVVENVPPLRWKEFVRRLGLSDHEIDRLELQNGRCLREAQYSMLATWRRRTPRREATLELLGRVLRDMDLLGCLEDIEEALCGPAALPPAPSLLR", "settings": "cited from earlier work"}, "[3]": {"settings": "cited from earlier work"}, "[4]": {"test": "lethality in RMA-T tumor bearing mice", "type": "in vivo, C57BL/6 mice", "settings": "3 days after treatment, single dose i.p.", "procedure": "as §1, with “flank. Ten-twelve days after tumor implantation, mice were treated, i.p., with 250 μl TNF or RGD-TNF solutions, diluted with endotoxin-free 0.9% sodium chloride.” for “flank.”\nMurine TNF administered to animals bearing established s.c. RMA-T tumors, causes 24 h later a reduction in the tumor mass and haemorragic necrosis in the central part of the tumor, followed by a significant growth delay for few days (71). […] In a first set of experiments we investigated the effect of various doses (i.p.) of TNF or RGD-TNF on animal survival. […]"}, "[5]": {"test_system": "L-M mouse fibroblasts (ATCC CCL1.2)"}, "[6]": {"target": "T2, p75TNFR (Homo sapiens, UniProt P20333)", "T2 sequence (P20333 23-461)": "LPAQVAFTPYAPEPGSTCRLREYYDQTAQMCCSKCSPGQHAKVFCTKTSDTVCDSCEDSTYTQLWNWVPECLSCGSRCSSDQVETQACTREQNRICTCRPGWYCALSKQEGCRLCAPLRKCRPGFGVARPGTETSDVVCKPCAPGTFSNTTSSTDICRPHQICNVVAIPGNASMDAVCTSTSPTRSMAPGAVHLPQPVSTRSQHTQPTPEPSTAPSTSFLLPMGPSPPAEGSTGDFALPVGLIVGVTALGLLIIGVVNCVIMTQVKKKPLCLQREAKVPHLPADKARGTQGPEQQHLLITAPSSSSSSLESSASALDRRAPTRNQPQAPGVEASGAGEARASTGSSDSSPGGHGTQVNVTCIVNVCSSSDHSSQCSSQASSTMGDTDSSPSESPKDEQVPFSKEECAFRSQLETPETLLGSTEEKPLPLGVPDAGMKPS", "settings": "cited from earlier work"}, "[7]": {"settings": "dose 1 μg i.v., treated 12 days after tumor implantation"}, "[8]": {"settings": "dose 2 μg i.v., treated 12 days after tumor implantation"}, "[9]": {"settings": "dose 4 μg i.v., treated 12 days after tumor implantation"}}, "note": "Read-outs that look alike come from different tables or passages of the source.", "data": [{"substance": "TNF: Tumor Necrosis Factor-α; in the examples murine recombinant Met-TNF1-156 produced in E. coli", "values": [{"measurement": "Survival (%) Day 14", "setting": "[1]; [7]", "result": 100, "unit": "%"}, {"measurement": "Survival (%) Day 22", "setting": "[1]; [7]", "result": 22, "unit": "%"}, {"measurement": "Survival (%) Day 32", "setting": "[1]; [7]", "result": 0, "unit": "%"}, {"measurement": "Survival (%) Day 14", "setting": "[1]; [8]", "result": 100, "unit": "%"}, {"measurement": "Survival (%) Day 22", "setting": "[1]; [8]", "result": 37, "unit": "%"}, {"measurement": "Survival (%) Day 32", "setting": "[1]; [8]", "result": 0, "unit": "%"}, {"measurement": "Survival (%) Day 90 (2nd ch.)", "setting": "[1]; dose 4 μg i.v., re-challenge with 50.000 RMA-T at day 90", "result": 0, "unit": "%"}, {"measurement": "Survival (%) Day 14", "setting": "[1]; [9]", "result": 100, "unit": "%"}, {"measurement": "Survival (%) Day 22", "setting": "[1]; [9]", "result": 70, "unit": "%"}, {"measurement": "Survival (%) Day 32", "setting": "[1]; [9]", "result": 30, "unit": "%"}, {"measurement": "Survival (%) Day 37", "setting": "[1]; [9]", "result": 10, "unit": "%"}, {"measurement": "Survival (%) Day 14", "setting": "[1]; dose 8 μg i.v., treated 12 days after tumor implantation", "result": 0, "unit": "%"}, {"measurement": "Survival (%) Day 14", "setting": "[1]; dose 16 μg i.v., treated 12 days after tumor implantation", "result": 0, "unit": "%"}, {"measurement": "animals cured", "setting": "[1]; single treatment, RGD-TNF 16 μg, TNF all doses", "result": "no animals at all were cured"}, {"measurement": "Kd", "setting": "[2]", "result": 0.5, "unit": "nM"}, {"measurement": "maximum tolerated dose", "setting": "[3]; bolus, intravenous, humans", "result": "218-410 μg/m^2"}, {"measurement": "maximum tolerated dose", "setting": "[3]; systemic administration", "result": "8 to 10", "unit": "µg/kg"}, {"measurement": "LD50 (lethality)", "setting": "[4]", "result": 6, "unit": "µg"}, {"measurement": "in vitro cytotoxic activity", "setting": "[5]", "result": "(1.2±0.14)×10^8 units/mg"}, {"measurement": "Kd", "setting": "[6]", "result": 0.1, "unit": "nM"}]}]}
